From PubChem BioAssay AID2060487 (Molecular Pharmacology Branch, DTP, NCI, 2025)
pIC50: −log10 of the molar value. Values joined by “and” are separate entries in the source; they are usually repeats but may differ in a detail not shown here. Equal values may be shown once.

Tested on: 997537-175-T-J1-PDC complex spheroid viability
Test: Anticancer human tumor 997537-175-T-J1-PDC patient-derived colon adenocarcinoma cell line growth inhibition [GQUAD]
Details: for viability, T/C: stronger effect = lower value
Excerpt: DNA G-quadruplex Stabilizer Agents in Combinations in Complex Spheroids
A high-throughput screen of multi-cell type tumor spheroids was designed to identify active combinations of DNA G-quadruplex stabilizer agents and targeted small molecules. Complex spheroids include a stromal component modeled by human endothelial cells (HUVEC) and fibroblasts modeled by human mesenchymal stem cells (MSCs). The concentration ranges selected for each drug and investigational agent were based upon clinically achievable concentrations if the clinical Cmax of the agent was known.
Compounds. The drugs and investigational agents: pidnarulex (CX-5461; NSC782164), APTO-253 (NSC789042), BRACO-19 (NSC847499), peposertib (NSC802822), ceralasertib (NSC780249), elimusertib (NSC800525), camonsertib (NSC841442), AZD-1390 (NSC803789), olaparib (NSC753686), talazoparib (NSC767125), ART-558 (NSC835418), sotorasib (NSC818433), MRTX-1133 (NSC836407), SN-38 (NSC673596), topotecan (NSC609699), etoposide (NSC141540), doxorubicin (NSC123127), gemcitabine (NSC613327), 5-fluorouracil (NSC19893), paclitaxel (NSC125973), vemurafenib (NSC761431), panobinostat (NSC761190), R-306465 (JNJ-16241199; NSC773264), adavosertib (NSC754352), TP-3654 (NSC805149), carboplatin (NSC241240), KSQ-4279 (NSC840948), and staurosporine (NSC755774) were obtained from the National Cancer Institute (NCI) Developmental Therapeutics Program Chemical Repository (34). The FDA-approved anticancer drug set is available from the NCI Developmental Therapeutics Program. […] The stock solutions were prepared in dimethyl sulfoxide (DMSO, Sigma-Aldrich, St. Louis, MO, cat. D2650) at 800-fold the tested concentration and stored at -70 degrees C prior to their use. All drugs and investigational agents were tested over a range starting from a high concentration at or near the clinical Cmax and decreasing in half-log increments. If the clinical Cmax for an agent had not been determined, the highest concentration tested was 10 microM.
2.3 Cell Culture. All cells were maintained in an incubator at 37 degrees C and 5% CO2 with 95% humidity. The PDC lines were cultured according to standard operating procedures established by the NCI PDMR. All PDCs were thawed and cultured in Matrigel-coated flasks prepared with a working solution of 1X Ham's F-12 nutrient mix, without supplementation (Invitrogen, cat. 11765054), 100 U/mL penicillin-streptomycin (Invitrogen, cat. 15140122), and 2.5% Matrigel (Corning Inc., cat. 354248) for the first three passages. The 857933-349-R-J2-PDC line was cultured in 6C/Colon 1B media, which includes advanced DMEM/F-12 (Thermo Fisher Scientific, cat. 12634028), 10 mM HEPES (Thermo Fisher Scientific, cat. 15630080), 1X GlutaMAX supplement (Thermo Fisher Scientific, cat. 35050061), 0.1 mg/mL primocin (InvivoGen, cat. ant-pm-2), 10% defined fetal bovine serum, heat inactivated (HyClone Laboratories Inc., cat. SH30070.03HI), 50% L-WRN conditioned media (ATCC, cat. CRL-3276), 1.25 mM N-Acetyl-L-cysteine (Sigma-Aldrich, cat. A9165), 10 mM nicotinamide (Sigma-Aldrich, cat. N0636), 1X B-27 supplement (Thermo Fisher Scientific, cat. 17504044), 1X N-2 supplement (Thermo Fisher Scientific, cat. 17502048), 10 microM Y-27632 dihydrochloride (Tocris Bioscience, cat. 1254), and 50 ng/mL human EGF recombinant protein (Thermo Fisher Scientific, cat. PHG0311). The 485176-168-R4-J1-PDC line was cultured in Panc media, which includes all 6C/Colon 1B media components plus 100 ng/mL human FGF-10 (Thermo Fisher Scientific, cat. 100-26), 500 nM SB-431542 (Selleckchem, cat. S1067), and gastrin (Tocris, cat. 3006).
[…]

[1] = curve of first compound, second compound 0.0316 µM
[2] = curve of first compound, second compound 0.1 µM
[3] = curve of first compound, second compound 0.316 µM
[4] = curve of first compound, second compound 1 µM
[5] = curve of first compound, second compound 3.16 µM
[6] = curve of first compound, second compound 10 µM
[7] = second compound 0.0316 µM, first compound 0.0316 µM
[8] = second compound 0.0316 µM, first compound 0.1 µM
[9] = second compound 0.0316 µM, first compound 0.316 µM
[10] = second compound 0.0316 µM, first compound 1 µM
[11] = second compound 0.0316 µM, first compound 3.16 µM
[12] = second compound 0.0316 µM, first compound 10 µM
[13] = second compound 0.1 µM, first compound 0.0316 µM
[14] = second compound 0.1 µM, first compound 0.1 µM
[15] = second compound 0.1 µM, first compound 0.316 µM
[16] = second compound 0.1 µM, first compound 1 µM
[17] = second compound 0.1 µM, first compound 3.16 µM
[18] = second compound 0.1 µM, first compound 10 µM
[19] = second compound 0.316 µM, first compound 0.0316 µM
[20] = second compound 0.316 µM, first compound 0.1 µM
[21] = second compound 0.316 µM, first compound 0.316 µM
[22] = second compound 0.316 µM, first compound 1 µM
[23] = second compound 0.316 µM, first compound 3.16 µM
[24] = second compound 0.316 µM, first compound 10 µM
[25] = second compound 1 µM, first compound 0.0316 µM
[26] = second compound 1 µM, first compound 0.1 µM
[27] = second compound 1 µM, first compound 0.316 µM
[28] = second compound 1 µM, first compound 1 µM
[29] = second compound 1 µM, first compound 3.16 µM
[30] = second compound 1 µM, first compound 10 µM
[31] = second compound 3.16 µM, first compound 0.0316 µM
[32] = second compound 3.16 µM, first compound 0.1 µM
[33] = second compound 3.16 µM, first compound 0.316 µM
[34] = second compound 3.16 µM, first compound 1 µM
[35] = second compound 3.16 µM, first compound 3.16 µM
[36] = second compound 3.16 µM, first compound 10 µM
[37] = second compound 10 µM, first compound 0.0316 µM
[38] = second compound 10 µM, first compound 0.1 µM
[39] = second compound 10 µM, first compound 0.316 µM
[40] = second compound 10 µM, first compound 1 µM
[41] = second compound 10 µM, first compound 3.16 µM
[42] = second compound 10 µM, first compound 10 µM
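Note: spheroids exposed to the agents for 7 days.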
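Throughout, for viability, T/C: 100% = DMSO vehicle control viability.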

Compound: CN(C)c1ccc(Nc2c3ccc(NC(=O)CCN4CCCC4)cc3nc3cc(NC(=O)CCN4CCCC4)ccc23)cc1
- viability, T/C (compound 0.316 µM): 97.1% [middle of 12 runs]
- pIC50 (compound alone, run of 04/22/2024): < 5.00

Compound: O=C(NO)c1cnc(N2CCN(S(=O)(=O)c3ccc4ccccc4c3)CC2)nc1 + Cc1cnc(CNC(=O)c2c(=O)c3ccc(N4CCCN(C)CC4)nc3n3c2sc2ccccc23)cn1
- pIC50 [1]: 5.71
- pIC50 [2]: 5.68
- pIC50 [3]: 5.40
- pIC50 [4]: 5.71
- pIC50 [5]: 5.74
- pIC50 [6]: 5.79
- viability, T/C [7]: 107%
- viability, T/C [8]: 92.3%
- viability, T/C [9]: 96.3%
- viability, T/C [10]: 81.2%
- viability, T/C [11]: 26.8%
- viability, T/C [12]: 0.4%
- viability, T/C [13]: 105%
- viability, T/C [14]: 97%
- viability, T/C [15]: 80.7%
- viability, T/C [16]: 69%
- viability, T/C [17]: 41.7%
- viability, T/C [18]: 0.47%
- viability, T/C [19]: 94.7%
- viability, T/C [20]: 100%
- viability, T/C [21]: 85.6%
- viability, T/C [22]: 73.2%
- viability, T/C [23]: 69.8%
- viability, T/C [24]: 0.31%
- viability, T/C [25]: 83.9%
- viability, T/C [26]: 90%
- viability, T/C [27]: 104%
- viability, T/C [28]: 93%
- viability, T/C [29]: 19.4%
- viability, T/C [30]: 0.31%
- viability, T/C [31]: 104%
- viability, T/C [32]: 116%
- viability, T/C [33]: 93.5%
- viability, T/C [34]: 83.2%
- viability, T/C [35]: 21.4%
- viability, T/C [36]: 1.15%
- viability, T/C [37]: 108%
- viability, T/C [38]: 88.7%
- viability, T/C [39]: 103%
- viability, T/C [40]: 77.5%
- viability, T/C [41]: 11.4%
- viability, T/C [42]: 0.29%

Compound: O=c1[nH]cc(F)c(=O)[nH]1
- viability, T/C (compound 0.0316 µM): 108% and 85.2% and 99.8%
- viability, T/C (compound 0.1 µM): 104% and 108% and 86.2%
- viability, T/C (compound 0.316 µM): 96.1% and 89% and 98.1%
- viability, T/C (compound 1 µM): 95.1% and 85.5% and 92.2%
- viability, T/C (compound 3.16 µM): 101% and 70.3% and 82.5%
- viability, T/C (compound 10 µM): 83.9% and 87.2% and 93.6%
- pIC50 (curve of compound): < 5.00

Compound: CC(=O)O[C@H]1C(=O)[C@@]2(C)[C@H]([C@H](OC(=O)c3ccccc3)[C@]3(O)C[C@H](OC(=O)[C@H](O)[C@@H](NC(=O)c4ccccc4)c4ccccc4)C(C)=C1C3(C)C)[C@]1(OC(C)=O)CO[C@@H]1C[C@@H]2O + Cc1[nH]c2ccc(F)cc2c1-c1nc2c3cccnc3c3ncccc3c2[nH]1
- pIC50 [1]: 5.55
- pIC50 [2]: 5.39
- pIC50 [3]: 5.35
- pIC50 [4]: 5.44
- pIC50 [5]: 5.66
- pIC50 [6]: 5.71
- viability, T/C [7]: 97.5%
- viability, T/C [8]: 93.3%
- viability, T/C [9]: 80.5%
- viability, T/C [10]: 92.1%
- viability, T/C [11]: 45.2%
- viability, T/C [12]: 0.33%
- viability, T/C [13]: 102%
- viability, T/C [14]: 106%
- viability, T/C [15]: 86.6%
- viability, T/C [16]: 90.9%
- viability, T/C [17]: 65.6%
- viability, T/C [18]: 0.32%
- viability, T/C [19]: 113%
- viability, T/C [20]: 91%
- viability, T/C [21]: 85.7%
- viability, T/C [22]: 87.7%
- viability, T/C [23]: 75.5%
- viability, T/C [24]: 0.3%
- viability, T/C [25]: 94.1%
- viability, T/C [26]: 93.3%
- viability, T/C [27]: 96.2%
- viability, T/C [28]: 89.8%
- viability, T/C [29]: 56.8%
- viability, T/C [30]: 0.2%
- viability, T/C [31]: 83.7%
- viability, T/C [32]: 93.3%
- viability, T/C [33]: 96.7%
- viability, T/C [34]: 84.8%
- viability, T/C [35]: 33.4%
- viability, T/C [36]: 0.38%
- viability, T/C [37]: 78.5%
- viability, T/C [38]: 90.1%
- viability, T/C [39]: 77.2%
- viability, T/C [40]: 78%
- viability, T/C [41]: 30.7%
- viability, T/C [42]: 0.47%
